In PubChem BioAssay AID1963861 (Molecular Pharmacology Branch, DTP, NCI, 2024):

Tested on: 885724-159-R-J1-PDC KRAS PDC multicell spheroid viability
Assay: Anticancer human tumor 885724-159-R-J1-PDC patient-derived pancreatic adenocarcinoma cell line growth inhibition [KRAS2]
Conditions: for IC50: curve of first compound; for viability, T/C: stronger effect = lower value
How it was run: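 KRAS-mutant tumor cells were grown as spheroids with HUVEC endothelial cells and human MSCs as stroma. Targeted agents were tested alone and with KRAS pathway inhibitors. Doses started at or near clinical Cmax, or 10 microM, descending half-log.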

[1] = second compound 0.1 µM, first compound 0.0316 µM
[2] = second compound 0.1 µM, first compound 0.1 µM
[3] = second compound 0.1 µM, first compound 0.316 µM
[4] = second compound 0.1 µM, first compound 1 µM
[5] = second compound 0.1 µM, first compound 3.16 µM
[6] = second compound 0.316 µM, first compound 0.0316 µM
[7] = second compound 0.316 µM, first compound 0.1 µM
[8] = second compound 0.316 µM, first compound 0.316 µM
[9] = second compound 0.316 µM, first compound 1 µM
[10] = second compound 0.316 µM, first compound 3.16 µM
[11] = second compound 1 µM, first compound 0.0316 µM
[12] = second compound 1 µM, first compound 0.1 µM
[13] = second compound 1 µM, first compound 0.316 µM
[14] = second compound 1 µM, first compound 1 µM
[15] = second compound 1 µM, first compound 3.16 µM
[16] = second compound 3.16 µM, first compound 0.0316 µM
[17] = second compound 3.16 µM, first compound 0.1 µM
[18] = second compound 3.16 µM, first compound 0.316 µM
[19] = second compound 3.16 µM, first compound 1 µM
[20] = second compound 3.16 µM, first compound 3.16 µM
[21] = second compound 0.1 µM, first compound 0.01 µM
[22] = second compound 0.316 µM, first compound 0.01 µM
[23] = second compound 1 µM, first compound 0.01 µM
[24] = second compound 3.16 µM, first compound 0.01 µM
[25] = second compound 10 µM, first compound 0.01 µM
[26] = second compound 10 µM, first compound 0.0316 µM
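Note: spheroids exposed to agents for 7 days before readout.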

Compound `CC1OCC2(CCN(c3cnc(Sc4ccnc(N)c4Cl)c(N)n3)CC2)C1N` (stereo not given) + C=CC(=O)N1CCN(c2nc(OCC3CCCN3C)nc3c2CCN(c2cccc4cccc(C)c24)C3)CC1CC#N has an IC50 (second compound 0.0316 µM) of over 10 µM, an IC50 (second compound 0.1 µM) of over 10 µM and an IC50 (second compound 0.316 µM) of over 10 µM. The IC50 (second compound 1 µM) was 9.45 µM, the IC50 (second compound 3.16 µM) was under 0.0316 µM and the viability, T/C (second compound 0.0316 µM, first compound 0.0316 µM) was 97%. For the same compound, the viability, T/C (second compound 0.0316 µM, first compound 0.1 µM) was 85.7%, the viability, T/C (second compound 0.0316 µM, first compound 0.316 µM) was 76.6% and the viability, T/C (second compound 0.0316 µM, first compound 1 µM) was 68.4%. The viability, T/C (second compound 0.0316 µM, first compound 3.16 µM) was 69.7%, the viability, T/C (second compound 0.0316 µM, first compound 10 µM) was 56.6% and the viability, T/C [1] was 103%. It also gave a viability, T/C [2] of 89.8%, a viability, T/C [3] of 71.6% and a viability, T/C [4] of 69.6%. For the same compound, the viability, T/C [5] was 63.4%, the viability, T/C (second compound 0.1 µM, first compound 10 µM) was 61.6% and the viability, T/C [6] was 94%. For the same compound, the viability, T/C [7] was 84.7%, the viability, T/C [8] was 70.5% and the viability, T/C [9] was 67.9%. It also gave a viability, T/C [10] of 60.2%, a viability, T/C (second compound 0.316 µM, first compound 10 µM) of 57.3% and a viability, T/C [11] of 79.4%. It also gave a viability, T/C [12] of 73.4%, a viability, T/C [13] of 64% and a viability, T/C [14] of 56.2%. It also gave a viability, T/C [15] of 56.8%, a viability, T/C (second compound 1 µM, first compound 10 µM) of 48.6% and a viability, T/C [16] of 46%. The viability, T/C [17] was 40.2%, the viability, T/C [18] was 36.1% and the viability, T/C [19] was 33.6%. For the same compound, the viability, T/C [20] was 35.1% and the viability, T/C (second compound 3.16 µM, first compound 10 µM) was 27.1%.
`CC(=O)Nc1cccc(-n2c(=O)n(C3CC3)c(=O)c3c(Nc4ccc(I)cc4F)n(C)c(=O)c(C)c32)c1` + CC1OCC2(CCN(c3cnc(Sc4ccnc(N)c4Cl)c(N)n3)CC2)C1N was tested, and the IC50 (second compound 0.1 µM) was 0.000715 µM, the IC50 (second compound 0.316 µM) was 0.000532 µM and the IC50 (second compound 1 µM) was 0.000328 µM. The IC50 (second compound 3.16 µM) was 0.000213 µM, the IC50 (second compound 10 µM) was 0.000106 µM and the viability, T/C (second compound 0.1 µM, first compound 0.0001 µM) was 81.5%. The viability, T/C (second compound 0.1 µM, first compound 0.000316 µM) was 62%, the viability, T/C (second compound 0.1 µM, first compound 0.001 µM) was 44.4% and the viability, T/C (second compound 0.1 µM, first compound 0.00316 µM) was 33.3%. It also gave a viability, T/C [21] of 24.1%, a viability, T/C [1] of 17.9% and a viability, T/C (second compound 0.316 µM, first compound 0.0001 µM) of 73.6%. The viability, T/C (second compound 0.316 µM, first compound 0.000316 µM) was 57.4%, the viability, T/C (second compound 0.316 µM, first compound 0.001 µM) was 41.3% and the viability, T/C (second compound 0.316 µM, first compound 0.00316 µM) was 28.8%. For the same compound, the viability, T/C [22] was 23.2%, the viability, T/C [6] was 15.9% and the viability, T/C (second compound 1 µM, first compound 0.0001 µM) was 64.7%. The viability, T/C (second compound 1 µM, first compound 0.000316 µM) was 51.6%, the viability, T/C (second compound 1 µM, first compound 0.001 µM) was 34.8% and the viability, T/C (second compound 1 µM, first compound 0.00316 µM) was 28%. It also gave a viability, T/C [23] of 18.4%, a viability, T/C [11] of 15% and a viability, T/C (second compound 3.16 µM, first compound 0.0001 µM) of 57%. For the same compound, the viability, T/C (second compound 3.16 µM, first compound 0.000316 µM) was 47.6%, the viability, T/C (second compound 3.16 µM, first compound 0.001 µM) was 30.3% and the viability, T/C (second compound 3.16 µM, first compound 0.00316 µM) was 24.3%. The viability, T/C [24] was 17.5%, the viability, T/C [16] was 14.3% and the viability, T/C (second compound 10 µM, first compound 0.0001 µM) was 50.6%. The viability, T/C (second compound 10 µM, first compound 0.000316 µM) was 38.6%, the viability, T/C (second compound 10 µM, first compound 0.001 µM) was 26% and the viability, T/C (second compound 10 µM, first compound 0.00316 µM) was 19.6%. It also gave a viability, T/C [25] of 13.8% and a viability, T/C [26] of 11.7%.
`CC(=O)OC12COC1CC(O)C1(C)C(=O)C(O)C3=C(C)C(OC(=O)C(O)C(NC(=O)OC(C)(C)C)c4ccccc4)CC(O)(C(OC(=O)c4ccccc4)C21)C3(C)C` (stereo not given) + CC1OCC2(CCN(c3cnc(Sc4ccnc(N)c4Cl)c(N)n3)CC2)C1N showed an IC50 (second compound 0.1 µM) of over 3.16 µM, an IC50 (second compound 0.316 µM) of over 3.16 µM and an IC50 (second compound 1 µM) of over 3.16 µM. For the same compound, the IC50 (second compound 3.16 µM) was over 3.16 µM, the IC50 (second compound 10 µM) was over 3.16 µM and the viability, T/C [21] was 103%. The viability, T/C [1] was 110%, the viability, T/C [2] was 108% and the viability, T/C [3] was 117%. The viability, T/C [4] was 122%, the viability, T/C [5] was 121% and the viability, T/C [22] was 99.7%. For the same compound, the viability, T/C [6] was 100%, the viability, T/C [7] was 109% and the viability, T/C [8] was 114%. For the same compound, the viability, T/C [9] was 128%, the viability, T/C [10] was 116% and the viability, T/C [23] was 112%. It also gave a viability, T/C [11] of 120%, a viability, T/C [12] of 126% and a viability, T/C [13] of 122%. For the same compound, the viability, T/C [14] was 135%, the viability, T/C [15] was 138% and the viability, T/C [24] was 76.2%. The viability, T/C [16] was 86.7%, the viability, T/C [17] was 88.9% and the viability, T/C [18] was 93.6%. The viability, T/C [19] was 97.2%, the viability, T/C [20] was 97.8% and the viability, T/C [25] was 77.6%. It also gave a viability, T/C [26] of 84.5%, a viability, T/C (second compound 10 µM, first compound 0.1 µM) of 87.4% and a viability, T/C (second compound 10 µM, first compound 0.316 µM) of 95.5%. The viability, T/C (second compound 10 µM, first compound 1 µM) was 91.5% and the viability, T/C (second compound 10 µM, first compound 3.16 µM) was 103%.
